Laboratory results taken from the NIST ThermoML archive (doi:10.1021/acs.jced.7b00674).
Numbers after ± are expanded uncertainties.

Assays:
[1] = 298.15 K; 101.33 kPa; Liquid; Vibrating tube method
[2] = refractive index (Na D-line) (dimensionless); conditions: 298.15 K; 101.33 kPa; Liquid; Standard Abbe refractometry

SMILES	mass density [1] [kg/m3]	refractive index [2]
OC1CCCCC1 [cyclohexanol]	961.5 ± 16	1.4621 ± 0.012
O [water]	–	1.3324 ± 0.012
Cc1ccc(C)cc1 [1,4-dimethylbenzene]	856.5 ± 16	1.4931 ± 0.012
CC(=O)C=C(C)C [4-methyl-3-penten-2-one]	857.6 ± 16	1.4416 ± 0.012
Cc1ccccc1 [toluene]	862.1 ± 16	1.4938 ± 0.012
